Tests used:
[1] = biological target: T1, AdmX-LBD (Serratia plymuthica, UniProt P0DV33, C100S); test: isothermal titration calorimetry; assay type: binding; conditions: read-out: dissociation constant
T1 construct: fast monomer-dimer equilibrium shifted toward dimer, dimer in crystal
T1 sequence (P0DV33 69-295 C100S): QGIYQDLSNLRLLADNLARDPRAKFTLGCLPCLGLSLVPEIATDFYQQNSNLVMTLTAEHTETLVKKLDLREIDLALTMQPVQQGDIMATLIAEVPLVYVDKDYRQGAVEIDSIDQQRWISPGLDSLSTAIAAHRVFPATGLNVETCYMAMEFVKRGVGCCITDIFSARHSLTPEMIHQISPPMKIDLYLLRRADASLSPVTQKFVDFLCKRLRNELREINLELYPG

[2] = biological target: T2, AdmX-LBD (Serratia plymuthica, UniProt P0DV33, E213Q); test: isothermal titration calorimetry; assay type: binding; conditions: read-out: dissociation constant
T2 construct: fast monomer-dimer equilibrium shifted toward dimer, dimer in crystal
T2 sequence (P0DV33 69-295 E213Q): T1 sequence (P0DV33 69-295 C100S)

| SMILES | Kd [1] | Kd [2] |
| --- | --- | --- |
| O=C(O)C(=O)Cc1c[nH]c2ccccc12 [indole-3-pyruvic acid] | 31.5 ± 1.6 µM | 6 ± 0.7 µM |
| O=C(O)Cc1c[nH]c2ccccc12 [indole-3-acetic acid] | 51 ± 3.4 µM | 23.9 ± 2.4 µM |
